According to the NIST ThermoML archive (doi:10.1016/j.fluid.2018.09.026):
Values joined by “and” are separate entries in the source; they are usually repeats but may differ in a detail not shown here. Identical values can stand only once.

Settings: Liquid; for mass density: Vibrating tube method; for viscosity: Vibrating wire viscometry

OCCOCCO [diethylene glycol]
Settings | mass density | viscosity
303.15 K, 63850 kPa | 1134.9 kg/m3 | –
303.15 K, 68760 kPa | 1136.6 kg/m3 | –
303.27 K, 180 kPa | – | 21.44 mPa·s [middle of 5 runs]
303.27 K, 190 kPa | – | 21.49 mPa·s
303.27 K, 1070 kPa | – | 21.42 mPa·s
303.27 K, 1080 kPa | – | 21.42 mPa·s and 21.5 mPa·s and 21.48 mPa·s
303.27 K, 2100 kPa | – | 21.72 mPa·s and 21.69 mPa·s
303.27 K, 5160 kPa | – | 22.14 mPa·s and 22.35 mPa·s and 22.13 mPa·s
303.27 K, 5170 kPa | – | 22.08 mPa·s
303.27 K, 10180 kPa | – | 22.97 mPa·s
303.27 K, 10190 kPa | – | 23.05 mPa·s and 23.2 mPa·s and 23 mPa·s
303.27 K, 20040 kPa | – | 24.7 mPa·s and 25.05 mPa·s and 24.87 mPa·s
303.27 K, 30920 kPa | – | 26.77 mPa·s [middle of 5 runs]
303.27 K, 40100 kPa | – | 28.49 mPa·s [middle of 5 runs]
303.27 K, 50040 kPa | – | 30.4 mPa·s
303.27 K, 50050 kPa | – | 30.52 mPa·s and 30.43 mPa·s
303.27 K, 50060 kPa | – | 30.59 mPa·s
303.27 K, 50070 kPa | – | 30.49 mPa·s
303.27 K, 68860 kPa | – | 34.35 mPa·s
303.27 K, 68920 kPa | – | 34.55 mPa·s
303.27 K, 69030 kPa | – | 34.74 mPa·s
303.27 K, 69090 kPa | – | 34.81 mPa·s
313.15 K, 100 kPa | 1101.7 kg/m3 and 1101.6 kg/m3 | –
313.15 K, 640 kPa | 1101.8 kg/m3 | –
313.15 K, 1140 kPa | 1102.1 kg/m3 | –
313.15 K, 1640 kPa | 1102.3 kg/m3 | –
313.15 K, 2100 kPa | 1102.5 kg/m3 | –
313.15 K, 3090 kPa | 1103 kg/m3 | –
313.15 K, 5130 kPa | 1103.9 kg/m3 | –
313.15 K, 6960 kPa | 1104.8 kg/m3 | –
313.15 K, 9960 kPa | 1106.1 kg/m3 | –
313.15 K, 14940 kPa | 1108.4 kg/m3 | –
313.15 K, 19750 kPa | 1110.6 kg/m3 | –
313.15 K, 24640 kPa | 1112.7 kg/m3 | –
313.15 K, 29640 kPa | 1114.8 kg/m3 | –
313.15 K, 34510 kPa | 1116.9 kg/m3 | –
313.15 K, 39340 kPa | 1118.9 kg/m3 | –
313.15 K, 44340 kPa | 1120.9 kg/m3 | –
313.15 K, 49190 kPa | 1123.2 kg/m3 | –
313.15 K, 54020 kPa | 1124.7 kg/m3 | –
313.15 K, 59030 kPa | 1126.7 kg/m3 | –
313.15 K, 63880 kPa | 1128.5 kg/m3 | –
313.15 K, 68820 kPa | 1130.3 kg/m3 | –
313.38 K, 200 kPa | – | 14.25 mPa·s and 14.24 mPa·s and 14.26 mPa·s
313.38 K, 210 kPa | – | 14.23 mPa·s [middle of 5 runs]
313.38 K, 1170 kPa | – | 14.28 mPa·s and 14.27 mPa·s
313.38 K, 1180 kPa | – | 14.33 mPa·s
313.38 K, 2300 kPa | – | 14.28 mPa·s
313.38 K, 2310 kPa | – | 14.5 mPa·s
313.38 K, 2320 kPa | – | 14.38 mPa·s
313.38 K, 5060 kPa | – | 14.69 mPa·s and 14.72 mPa·s
313.38 K, 5070 kPa | – | 14.63 mPa·s and 14.65 mPa·s
313.38 K, 5080 kPa | – | 14.64 mPa·s
313.38 K, 10280 kPa | – | 15.26 mPa·s
313.38 K, 10290 kPa | – | 15.13 mPa·s
313.38 K, 10300 kPa | – | 15.2 mPa·s
313.38 K, 20100 kPa | – | 16.33 mPa·s
313.38 K, 20110 kPa | – | 16.16 mPa·s and 16.17 mPa·s
313.38 K, 30110 kPa | – | 17.27 mPa·s and 17.34 mPa·s and 17.33 mPa·s
313.38 K, 40110 kPa | – | 18.5 mPa·s [middle of 4 runs]
313.38 K, 50110 kPa | – | 19.66 mPa·s and 19.68 mPa·s
313.38 K, 50120 kPa | – | 19.64 mPa·s
313.38 K, 50130 kPa | – | 19.61 mPa·s
313.38 K, 69490 kPa | – | 22.11 mPa·s
313.38 K, 69530 kPa | – | 22.04 mPa·s
313.38 K, 69580 kPa | – | 21.98 mPa·s
323.15 K, 100 kPa | 1094.3 kg/m3 | –
323.15 K, 680 kPa | 1094.6 kg/m3 | –
323.15 K, 1130 kPa | 1094.8 kg/m3 | –
323.15 K, 1570 kPa | 1095 kg/m3 | –
323.15 K, 2100 kPa | 1095.2 kg/m3 | –
323.15 K, 3080 kPa | 1095.7 kg/m3 | –
323.15 K, 5080 kPa | 1096.7 kg/m3 | –
323.15 K, 7000 kPa | 1097.6 kg/m3 | –
323.15 K, 9950 kPa | 1099 kg/m3 | –
323.15 K, 14890 kPa | 1101.4 kg/m3 | –
